Source: patent EP2003129B1, “1H-Pyrido[3,4-B]indol-1-one and 2,3,4,9-Tetrahydro-1H-Beta-Carbolin-1-one Derivatives” (Nerviano Medical Sciences S.r.l., priority 2007, dated 2008)

Columns and labels:
PDK1 = target: T1, PDK1 (Homo sapiens, UniProt O15530); assay: Enzyme inhibition activity, PDK1; format: biochemical
T1 sequence (O15530 1-556): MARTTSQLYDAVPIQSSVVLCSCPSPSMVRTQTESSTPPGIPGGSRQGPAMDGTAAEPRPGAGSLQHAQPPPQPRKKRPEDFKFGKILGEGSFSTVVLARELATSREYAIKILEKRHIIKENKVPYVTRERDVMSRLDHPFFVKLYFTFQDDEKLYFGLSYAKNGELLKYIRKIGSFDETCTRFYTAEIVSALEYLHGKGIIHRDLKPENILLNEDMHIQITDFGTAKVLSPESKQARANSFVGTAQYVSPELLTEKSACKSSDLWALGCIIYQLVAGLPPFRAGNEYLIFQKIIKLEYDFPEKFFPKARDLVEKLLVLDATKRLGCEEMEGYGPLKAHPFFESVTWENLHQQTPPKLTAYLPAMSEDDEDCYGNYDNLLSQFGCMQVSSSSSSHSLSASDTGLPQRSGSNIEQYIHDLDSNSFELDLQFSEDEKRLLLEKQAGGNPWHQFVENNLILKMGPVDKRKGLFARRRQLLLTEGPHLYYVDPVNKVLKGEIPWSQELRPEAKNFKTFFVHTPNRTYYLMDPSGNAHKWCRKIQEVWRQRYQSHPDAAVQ
Method: (§1) Operating as described above in the tests of inhibition activity on enzymes, or in an analogous way, the following data were obtained for 2-methyl-N-{4-[2-(methylamino)-2-oxoethyl]-1-oxo-2,9-dihydro-1H-beta-carbolin-6-yl}hexanamide (Compound XIIIh). The same compound was tested for cytotoxic activity on cells as described below.

JAK3 = target: T2, JAK3 (Homo sapiens, UniProt P52333); assay: Enzyme inhibition activity, JAK3; format: biochemical
T2 sequence (P52333 1-1124): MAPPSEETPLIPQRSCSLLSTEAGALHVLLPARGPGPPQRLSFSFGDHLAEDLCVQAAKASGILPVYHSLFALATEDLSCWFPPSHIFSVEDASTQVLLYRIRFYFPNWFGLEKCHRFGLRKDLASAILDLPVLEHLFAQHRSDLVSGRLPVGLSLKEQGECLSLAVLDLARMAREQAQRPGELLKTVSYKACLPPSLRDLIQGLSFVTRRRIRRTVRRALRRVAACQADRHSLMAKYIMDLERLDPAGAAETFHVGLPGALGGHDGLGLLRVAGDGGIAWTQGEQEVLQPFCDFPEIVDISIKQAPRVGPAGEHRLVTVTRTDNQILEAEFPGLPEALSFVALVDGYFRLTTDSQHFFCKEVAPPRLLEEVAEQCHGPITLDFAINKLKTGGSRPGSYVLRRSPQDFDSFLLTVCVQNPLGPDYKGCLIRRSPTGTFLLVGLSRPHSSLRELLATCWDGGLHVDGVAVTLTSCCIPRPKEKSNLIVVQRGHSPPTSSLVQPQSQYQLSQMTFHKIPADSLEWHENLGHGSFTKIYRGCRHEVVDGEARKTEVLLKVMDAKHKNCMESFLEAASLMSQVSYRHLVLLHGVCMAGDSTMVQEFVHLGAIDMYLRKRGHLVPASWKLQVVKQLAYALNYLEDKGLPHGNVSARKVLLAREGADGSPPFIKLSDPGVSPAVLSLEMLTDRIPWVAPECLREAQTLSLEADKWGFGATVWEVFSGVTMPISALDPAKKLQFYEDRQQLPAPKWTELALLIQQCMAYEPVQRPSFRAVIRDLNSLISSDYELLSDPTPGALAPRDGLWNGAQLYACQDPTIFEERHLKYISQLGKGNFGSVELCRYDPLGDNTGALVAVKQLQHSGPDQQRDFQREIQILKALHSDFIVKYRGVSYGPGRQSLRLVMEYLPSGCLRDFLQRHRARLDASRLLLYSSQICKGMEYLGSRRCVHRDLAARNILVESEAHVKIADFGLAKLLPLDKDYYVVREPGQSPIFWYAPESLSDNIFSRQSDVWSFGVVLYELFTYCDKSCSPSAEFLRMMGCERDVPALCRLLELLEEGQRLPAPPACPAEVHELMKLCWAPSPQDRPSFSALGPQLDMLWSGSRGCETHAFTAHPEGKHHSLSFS
Method: as §1

AUR1 = AUR1 (Homo sapiens, UniProt Q96GD4); assay: Enzyme inhibition activity, AUR1; format: biochemical
Chain of AUR1 (Q96GD4 whole entry): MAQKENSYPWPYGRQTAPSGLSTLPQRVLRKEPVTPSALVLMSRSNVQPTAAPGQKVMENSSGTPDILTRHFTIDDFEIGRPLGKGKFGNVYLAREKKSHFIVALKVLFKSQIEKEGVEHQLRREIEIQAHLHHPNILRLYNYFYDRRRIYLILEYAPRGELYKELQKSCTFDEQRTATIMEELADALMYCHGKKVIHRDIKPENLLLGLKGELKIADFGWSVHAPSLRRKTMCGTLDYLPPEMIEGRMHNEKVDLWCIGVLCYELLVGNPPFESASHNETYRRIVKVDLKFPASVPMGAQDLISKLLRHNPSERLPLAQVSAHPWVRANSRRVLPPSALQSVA
Method: as §1

A2780 = assay: Cytotoxic activity on cells (cell proliferation, cellular ATP monitoring); format: cell-based; conditions: Homo sapiens; Cell Type A2780; concentration inhibiting cell proliferation by 50%; 72 hours treatment
Method: Exponentially growing cells A2780 were seeded and incubated at 37°C in a humidified 5% CO2 atmosphere. After 24 hours, scalar doses of test compound were added to the medium and cells were incubated for additional 72 hours.
At the end of treatment, cell proliferation was determined by a cellular ATP monitoring system which consists of a mixture of luciferase and luciferin, reconstituted in a lysis buffer; 100 µL/well of this solution were added to the cells. The plates were then shaken for 2 minutes in an orbital shaker and were read in a luminometer, with the signal linearly proportional to the cell number.

PKAalpha = PKAalpha (Homo sapiens, UniProt P17612); assay: Enzyme inhibition activity, PKAalpha; format: biochemical
Method: as §1

FGFR1 = FGFR1 (Homo sapiens, UniProt P11362); assay: Enzyme inhibition activity, FGFR1; format: biochemical
Method: as §1

CDK2/CYCA = target: T3, CDK2/CYCA (Homo sapiens, UniProt P24941); assay: Inhibition assay of Cdk2/Cyclin A activity; format: biochemical; conditions: Enzyme CDK2/CYCA
T3 construct: made in house
Method: Inhibition assay of Cdk2/Cyclin A activity
1.5 µM histone H1 substrate, 25 µM ATP (0.2 µCi P33γ-ATP), 30 ng of baculovirus co-expressed Cdk2/Cyclin A, 10 µM inhibitor in a final volume of 100 µl buffer (TRIS HCl 10 mM pH 7.5, MgCl2 10 mM, 7.5 mM DTT) were added to each well of a 96 U bottom well plate. After 10 min at 37 °C incubation, reaction was stopped by 20 µl EDTA 120 mM.
100 µl were transferred from each well from the kinase reaction to MultiScreen plate, to allow substrate binding to phosphocellulose filter. Plates were then washed 3 times with 150 µl/well PBS Ca^++/Mg^++ free and filtered by MultiScreen filtration system.
Filters were allowed to dry at 37°C, then 100 µl/well scintillant were added and 33P labeled histone H1 was detected by radioactivity counting in the Top-Count instrument. Results: data were analyzed and expressed as % inhibition referred to total activity of enzyme (=100%).
All compounds showing inhibition ≥ 50 % were further analyzed in order to study and define potency (IC50) as well as the kinetic-profile of inhibitor through Ki calculation. IC50 determination: the protocol used was the same described above, where inhibitors were tested at different concentrations ranging from 0.0045 to 10 µM. […]

AUR2 = target: T4, AUR2 (Homo sapiens, UniProt O14965); assay: Inhibition assay of Aurora-2 activity; format: biochemical; conditions: Enzyme AUR2
T4 sequence (O14965 1-403): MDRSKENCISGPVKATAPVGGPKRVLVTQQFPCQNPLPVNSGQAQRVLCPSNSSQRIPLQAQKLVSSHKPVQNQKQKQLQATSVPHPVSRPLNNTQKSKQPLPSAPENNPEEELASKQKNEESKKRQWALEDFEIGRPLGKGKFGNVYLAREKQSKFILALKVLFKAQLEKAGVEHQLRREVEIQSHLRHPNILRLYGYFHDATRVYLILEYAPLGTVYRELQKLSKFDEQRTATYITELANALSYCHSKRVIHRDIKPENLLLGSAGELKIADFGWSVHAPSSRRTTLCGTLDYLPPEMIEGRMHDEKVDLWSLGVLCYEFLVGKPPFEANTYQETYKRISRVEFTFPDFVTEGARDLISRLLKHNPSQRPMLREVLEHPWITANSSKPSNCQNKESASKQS
Method: Inhibition assay of Aurora-2 activity
The inhibiting activity and the potency of selected compounds was determined through a method of assay based on the use of the streptavidin scintillation proximity assay beads (amershampharmacia biotech) run in a 96 well plates. At the end of the reaction, the biotinylated peptide substrate was captured with the beads and subsequently allowed to stratify using CsCl. When a radioactivity labeled phosphate moiety was transferred by the kinase to the beads-bound peptide, light emitted was measured in a scintillation counter.
The inhibition assay of Aurora-2 activity was performed in 96 wells plate according to the following protocol:
8 µM biotinylated peptide (4 repeats of LRRWSLG), 10 µM ATP (0.5 uCi P^33g-ATP), 10 nM Aurora2, 10 µM inhibitor in a final volume of 60 µl buffer (HEPES 50 mM pH 7.0, MgCl2 10 mM, 1 mM DTT, 0.125 mg/ml BSA, 3µM orthovanadate) were added to each well of a 96 U bottom well plate. After 30 minutes at room temperature incubation, reaction was stopped and biotinylated peptide captured by adding 100 µl of bead suspension.
100 µl of CsCl 7.5 M were added to each well and let stand one hour before radioactivity was counted in the Top-Count instrument.
Results: data were analyzed and expressed as % inhibition referred to total activity of enzyme (=100%). […]

VEGFR2 = VEGFR2 (Homo sapiens, UniProt P35968); assay: Enzyme inhibition activity, VEGFR2; format: biochemical
Chain of VEGFR2 (P35968 20-1356, species assumed): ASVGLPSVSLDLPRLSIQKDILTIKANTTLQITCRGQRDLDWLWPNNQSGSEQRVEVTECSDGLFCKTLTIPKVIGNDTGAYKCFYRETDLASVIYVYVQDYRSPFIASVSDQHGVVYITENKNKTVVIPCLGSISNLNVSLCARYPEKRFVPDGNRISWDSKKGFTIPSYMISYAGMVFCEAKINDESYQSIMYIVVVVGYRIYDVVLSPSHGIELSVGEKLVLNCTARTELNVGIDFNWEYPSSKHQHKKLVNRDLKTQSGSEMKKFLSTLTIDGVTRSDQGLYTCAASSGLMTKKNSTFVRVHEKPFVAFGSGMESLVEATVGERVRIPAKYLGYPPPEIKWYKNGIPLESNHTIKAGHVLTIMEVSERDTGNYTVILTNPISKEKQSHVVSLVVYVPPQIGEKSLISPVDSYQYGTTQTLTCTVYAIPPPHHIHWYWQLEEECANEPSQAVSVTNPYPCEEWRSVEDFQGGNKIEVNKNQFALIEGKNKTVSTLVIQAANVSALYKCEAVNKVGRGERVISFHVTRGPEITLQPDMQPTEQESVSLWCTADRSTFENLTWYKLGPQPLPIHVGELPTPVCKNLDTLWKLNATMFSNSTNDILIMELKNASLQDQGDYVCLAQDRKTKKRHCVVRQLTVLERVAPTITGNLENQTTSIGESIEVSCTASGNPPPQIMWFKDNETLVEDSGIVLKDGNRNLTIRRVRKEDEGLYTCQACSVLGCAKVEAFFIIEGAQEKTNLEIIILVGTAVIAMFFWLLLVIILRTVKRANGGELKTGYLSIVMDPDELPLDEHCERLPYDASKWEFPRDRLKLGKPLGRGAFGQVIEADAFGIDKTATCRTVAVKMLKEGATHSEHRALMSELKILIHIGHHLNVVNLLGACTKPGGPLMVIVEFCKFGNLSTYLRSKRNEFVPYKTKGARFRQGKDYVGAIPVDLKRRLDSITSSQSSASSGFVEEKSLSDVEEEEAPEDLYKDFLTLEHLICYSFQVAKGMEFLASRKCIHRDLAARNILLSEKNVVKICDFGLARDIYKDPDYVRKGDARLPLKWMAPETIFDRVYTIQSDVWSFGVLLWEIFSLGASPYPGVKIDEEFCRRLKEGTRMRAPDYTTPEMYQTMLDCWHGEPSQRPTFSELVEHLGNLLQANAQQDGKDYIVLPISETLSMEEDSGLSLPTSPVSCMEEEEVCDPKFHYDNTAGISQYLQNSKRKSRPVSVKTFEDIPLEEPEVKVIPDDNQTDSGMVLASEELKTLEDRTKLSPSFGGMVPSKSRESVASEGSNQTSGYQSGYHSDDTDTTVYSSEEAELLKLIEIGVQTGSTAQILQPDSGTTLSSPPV
Method: as §1

GSK3beta = GSK3beta (Homo sapiens, UniProt P49841); assay: Enzyme inhibition activity, GSK3beta; format: biochemical
Chain of GSK3beta (P49841 whole entry, species assumed): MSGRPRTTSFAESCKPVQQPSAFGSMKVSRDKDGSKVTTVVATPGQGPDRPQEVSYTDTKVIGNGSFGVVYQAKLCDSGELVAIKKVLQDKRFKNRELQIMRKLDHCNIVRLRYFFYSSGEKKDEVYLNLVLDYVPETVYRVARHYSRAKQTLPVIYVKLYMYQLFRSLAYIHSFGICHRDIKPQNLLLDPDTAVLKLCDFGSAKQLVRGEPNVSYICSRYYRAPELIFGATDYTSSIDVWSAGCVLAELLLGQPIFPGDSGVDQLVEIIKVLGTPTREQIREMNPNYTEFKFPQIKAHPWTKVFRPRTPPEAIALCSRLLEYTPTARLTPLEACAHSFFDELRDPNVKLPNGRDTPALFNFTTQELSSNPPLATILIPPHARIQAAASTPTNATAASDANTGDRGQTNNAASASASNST
Method: as §1

RET = RET (Homo sapiens, UniProt P07949); assay: Enzyme inhibition activity, RET; format: biochemical
Chain of RET (P07949 29-1114, species assumed): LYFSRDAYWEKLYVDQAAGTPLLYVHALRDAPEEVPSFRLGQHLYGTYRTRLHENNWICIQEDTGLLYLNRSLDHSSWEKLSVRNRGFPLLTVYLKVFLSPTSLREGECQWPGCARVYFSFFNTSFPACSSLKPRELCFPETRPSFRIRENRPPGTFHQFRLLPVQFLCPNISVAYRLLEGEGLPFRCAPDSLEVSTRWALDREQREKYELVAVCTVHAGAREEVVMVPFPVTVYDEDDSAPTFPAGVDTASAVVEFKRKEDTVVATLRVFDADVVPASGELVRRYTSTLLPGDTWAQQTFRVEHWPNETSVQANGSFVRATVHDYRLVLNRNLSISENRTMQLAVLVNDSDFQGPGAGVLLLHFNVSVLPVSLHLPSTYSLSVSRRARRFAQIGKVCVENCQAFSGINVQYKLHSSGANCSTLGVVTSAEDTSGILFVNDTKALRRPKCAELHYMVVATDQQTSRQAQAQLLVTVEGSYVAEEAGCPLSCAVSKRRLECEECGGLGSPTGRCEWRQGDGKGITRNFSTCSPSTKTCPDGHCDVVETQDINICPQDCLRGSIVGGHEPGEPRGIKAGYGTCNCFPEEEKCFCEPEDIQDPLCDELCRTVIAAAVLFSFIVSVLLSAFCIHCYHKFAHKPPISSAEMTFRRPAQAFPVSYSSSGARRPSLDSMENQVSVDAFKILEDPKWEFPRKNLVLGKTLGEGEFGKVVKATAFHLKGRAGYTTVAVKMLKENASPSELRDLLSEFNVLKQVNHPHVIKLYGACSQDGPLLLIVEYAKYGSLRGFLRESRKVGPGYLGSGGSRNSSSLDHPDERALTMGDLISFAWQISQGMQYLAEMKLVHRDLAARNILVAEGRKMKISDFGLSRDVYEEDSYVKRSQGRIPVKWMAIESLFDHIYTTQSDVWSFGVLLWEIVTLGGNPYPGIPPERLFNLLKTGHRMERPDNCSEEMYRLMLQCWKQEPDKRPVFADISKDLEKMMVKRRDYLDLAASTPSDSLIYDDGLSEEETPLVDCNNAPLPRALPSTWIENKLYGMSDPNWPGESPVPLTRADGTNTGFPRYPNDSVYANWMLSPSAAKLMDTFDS
Method: as §1

VEGFR3 = VEGFR3 (Homo sapiens, UniProt P35916); assay: Enzyme inhibition activity, VEGFR3; format: biochemical
Chain of VEGFR3 (P35916 25-1363, species assumed): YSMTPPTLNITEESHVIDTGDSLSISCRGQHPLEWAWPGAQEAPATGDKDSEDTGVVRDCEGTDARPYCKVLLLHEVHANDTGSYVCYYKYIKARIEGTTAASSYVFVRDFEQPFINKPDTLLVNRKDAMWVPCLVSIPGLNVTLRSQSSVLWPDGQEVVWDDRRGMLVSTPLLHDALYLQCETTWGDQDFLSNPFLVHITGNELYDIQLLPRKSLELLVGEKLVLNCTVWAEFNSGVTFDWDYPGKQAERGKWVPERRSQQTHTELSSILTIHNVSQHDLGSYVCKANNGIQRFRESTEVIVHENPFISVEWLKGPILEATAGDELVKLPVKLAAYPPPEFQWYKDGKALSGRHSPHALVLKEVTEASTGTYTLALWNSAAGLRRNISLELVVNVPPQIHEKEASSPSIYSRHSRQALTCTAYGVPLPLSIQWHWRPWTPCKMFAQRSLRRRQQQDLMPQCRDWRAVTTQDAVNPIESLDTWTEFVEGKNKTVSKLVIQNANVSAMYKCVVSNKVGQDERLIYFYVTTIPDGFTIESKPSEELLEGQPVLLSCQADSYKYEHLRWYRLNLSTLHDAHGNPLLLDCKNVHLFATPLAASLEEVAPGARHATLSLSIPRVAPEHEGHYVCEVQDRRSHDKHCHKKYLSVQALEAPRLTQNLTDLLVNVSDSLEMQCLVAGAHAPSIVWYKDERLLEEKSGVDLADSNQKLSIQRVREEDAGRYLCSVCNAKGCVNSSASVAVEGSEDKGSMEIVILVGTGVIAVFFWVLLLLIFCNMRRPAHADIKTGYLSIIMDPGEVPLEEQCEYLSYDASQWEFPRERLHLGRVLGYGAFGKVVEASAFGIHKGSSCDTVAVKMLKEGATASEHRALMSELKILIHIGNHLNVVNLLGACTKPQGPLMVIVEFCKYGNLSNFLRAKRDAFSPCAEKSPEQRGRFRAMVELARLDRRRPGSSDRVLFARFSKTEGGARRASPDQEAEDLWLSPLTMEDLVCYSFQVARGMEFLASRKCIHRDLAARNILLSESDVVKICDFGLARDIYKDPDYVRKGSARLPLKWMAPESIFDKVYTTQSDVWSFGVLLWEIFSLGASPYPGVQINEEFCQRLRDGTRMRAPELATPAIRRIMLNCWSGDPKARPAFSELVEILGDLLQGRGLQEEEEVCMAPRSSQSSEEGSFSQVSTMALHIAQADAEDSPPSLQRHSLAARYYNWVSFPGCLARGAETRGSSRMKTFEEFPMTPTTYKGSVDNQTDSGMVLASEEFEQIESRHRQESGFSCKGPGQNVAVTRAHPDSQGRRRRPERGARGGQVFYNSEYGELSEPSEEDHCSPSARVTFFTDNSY
Method: as §1

IC50 (PDK1): 1300 nM | IC50 (JAK3): 1760 nM | IC50 (AUR1): 423 nM | IC50 (PKAalpha): 866 nM | IC50 (FGFR1): 2520 nM | IC50 (CDK2/CYCA): 1700 nM | IC50 (AUR2): 51 nM | IC50 (VEGFR2): 1920 nM | IC50 (GSK3beta): 1890 nM | IC50 (RET): 1080 nM | IC50 (VEGFR3): 594 nM
Compound: CCCCC(C)C(=O)Nc1ccc2[nH]c3c(=O)[nH]cc(CC(=O)NC)c3c2c1 (stereo not drawn) [Compound XIIIh, 2-Methyl-N-{4-[2-(methylamino)-2-oxoethyl]-1-oxo-2,9-dihydro-1H-beta-carbolin-6-yl}hexanamide]
IC50 (A2780): 3610 nM
